Test results: patent US11747321B2, “Apparatuses for cell mapping via impedance measurements and methods to operate the same” (President and Fellows of Harvard College, priority 2020, dated 2023)

Tests used:
[1] = test system: MDCK cells; assay: Wound healing assay: electrochemically patterned wound, regrowth measured by impedance mapping; format: cell-based, Canine; conditions: 1 μM, over 72 hours, control culture shows regrowth
Description: This example describes a combined application of both the cross-electrode impedance mapping and cell patterning is a wound healing assay.
These assays gauge cell growth rate and metabolism and can be useful for screening drugs affecting these parameters. Compared to the electrochemical patterning described herein, other tools mechanically generate a wound in a cell culture via a mechanical scratch which is both difficult to control and limiting in terms of wound pattern.
In this example, a wound is made in MDCK cells and then the growth is mapped in real-time. […] These patterns were defined by applying electrode currents of −10 nA for 40 s versus a Ag/AgCl pseudo reference electrode. The regrowth of the culture was then measured using the impedance mapping method.

[2] = test system: MDCK cells
Description: Ethylenediaminetetraacetic acid (EDTA) is applied to the cells. EDTA is a calcium chelator that removes Ca^2+ needed for integrin proteins to maintain cell adhesion.
FIG. 6b is a data plot showing mean normalized impedances for different regions of the cell culture over time as specified in the map 601. FIG. 6cc are histograms of the normalized impedance values before, during, and after a washout of EDTA across the array.

For C=C1[C@@H](C)[C@H]2[C@H](Cc3ccccc3)NC(=O)[C@]23OC(=O)/C=C/[C@H](O)CCC[C@@H](C)C/C=C/[C@H]3[C@@H]1O [cytochalasin B], the “regrowth of wounded cell culture (normalized cross-electrode impedance maps)” value [1] was “very little growth”.
O=C(O)CN(CCN(CC(=O)O)CC(=O)O)CC(=O)O [EDTA, Ethylenediaminetetraacetic acid] was tested, and the “time course of cell detachment with EDTA applied” value ([2]; 5 mM EDTA application, normalized impedance maps) was ~50 min and the “time course of cell re-attachment after EDTA washout” value ([2]; EDTA washed out by adding normal culture media) was ~200 min.
